What was measured:
C. elegans [1] = test: Rescue of C. elegans delta-12 FAT RNAi feeding phenotype by fatty acid methyl esters; format: cell-based, Caenorhabditis elegans; details: 3 mM added to the NGM media
Source text: RNAi by feeding: C. elegans can be grown on lawns of E. coli genetically engineered to produce double stranded RNA (dsRNA) designed to inhibit delta-12 fat-2 expression. Briefly, E. coli were transformed with a genomic fragment of a portion of the C. elegans fat-2 gene sequence, specifically a fragment 651 nucleotides long, containing the entire first exon and terminating just before the conserved intron splice junction between the first exon and first intron. This construct encodes approximately the first 217 amino acids of the C. elegans delta-12 FAT gene. The 651 nucleotide genomic fragment was cloned into an E. coli expression vector between opposing T7 polymerase promoters. The clone was then transformed into a strain of E. coli that carries an IPTG-inducible T7 polymerase. As a control, E. coli was transformed with a gene encoding the Green Fluorescent Protein (GFP). Feeding RNAi was initiated from C. elegans eggs or from C. elegans […]. […] When feeding RNAi was started from C. elegans L4 larvae at 23° C. on NGM plates containing IPTG and E. coli expressing the C. elegans […] […] The sequence of the fat-2 gene is of sufficiently high complexity (i.e., unique) such that the RNAi is not likely to represent cross reactivity with other genes. […]

C. elegans [2] = test: Nematicidal activity of single fatty acid methyl ester emulsions against Caenorhabditis elegans (Example 4); format: cell-based
Protocol: Mixed stage Caenorhabditis elegans were washed off plates seeded with OP50 bacteria using M9 solution. 250 μl of the M9 solution, which contained about 50 worms, was pipetted into each well of a 24-well plate.
(§1) Fatty acid methyl ester emulsions were prepared following the teachings of Kim et al (U.S. Pat. No. 5,698,592). Briefly, 1 ml 1% stock solution emulsions were prepared by mixing 10 μl of fatty acid methyl ester with 20 μl of the surfactant Igepal CO 630 in a 1.5 ml eppendorf tube. After careful mixing of fatty acid and Igepal CO 630, 850 μl of ddH20 was added and mixed by gentle pipetting until a homogeneous solution was obtained. Finally, 120 μl of pure isopropanol was added and mixed by gentle pipetting. This stock solution was then used to produce various fatty acid methyl ester dilution emulsions in 24-well plate assays.
To each well, fatty acid emulsions or control emulsions were added and rapidly mixed by swirling. Nematode viability was scored by visual observation and motility assays at various time points 24 hours following addition of emulsions or controls. The fatty acid emulsions tested were methyl esters of nonanoic (pelargonic) acid, ricinoleic acid, vernolic acid, linoleic acid, oleic acid, and control emulsions lacking fatty acids.

C. elegans [3] = test: Nematicidal activity of fatty acid methyl ester emulsions, spectrum (Example 8); format: cell-based, Caenorhabditis elegans; details: C. elegans mixed stage
Protocol: (§2) Briefly, the indicated fatty acid emulsions were added and rapidly mixed by swirling. Nematode viability was scored by visual observation and motility assays 24 hours following addition of emulsions (48 hours for plant parasitic nematodes Meloidogyne and Heterodera species). The fatty acid emulsions tested were methyl esters of nonanoic (pelargonic) acid, ricinelaidic acid, ricinoleic acid, vernolic acid, linoleic acid, and oleic acid. […] Results shown are mean % values obtained from multiple independent experiments
(§3) The Caenorhabiditis elegans were mixed stage populations. Similar effects seen on several other free-living nematode species. The Parastrongyloides trichosuri (parasite of Australian bushtail possum) were dauer-like infective 3rd stage larva. Similar effects are also seen against free-living stages. The Meloidogyne incognita and Meloidogyne javanica (root knot nematode) were 2nd stage juveniles (dauer-like infective stage). The Heterodera glycines (soybean cyst nematode) were 2nd stage juveniles (dauer-like infective stage). Finally, the Pratylenchus scribneri (corn lesion nematode) were mixed stage populations.

P. trichosuri = test: as above; format: cell-based, Parastrongyloides trichosuri; details: P. trichosuri infective 3rd stage larva
Protocol: as §2, §3

M. incognita [4] = test: as above; format: cell-based, Meloidogyne incognita; details: M. incognita 2nd stage juveniles, scored at 48 hours
Protocol: as §2, §3

M. javanica [5] = test: as above; format: cell-based, Meloidogyne javanica; details: M. javanica 2nd stage juveniles, scored at 48 hours
Protocol: as §2, §3

H. glycines = test: as above; format: cell-based, Heterodera glycines; details: H. glycines 2nd stage juveniles, scored at 48 hours
Protocol: as §2, §3

P. scribneri = test: as above; format: cell-based, Pratylenchus scribneri; details: P. scribneri mixed stage
Protocol: as §2, §3

C. elegans [6] = test: Nematicidal activity of emulsions made with Tween-20 (replacing Igepal CO 630) against C. elegans; format: cell-based, Caenorhabditis elegans; details: Tween-20 emulsion
Protocol: Some nematodes assayed as described in Example 9 lacked tolerance to emulsions made with the surfactant Igepal CO 630. For this reason some assays were repeated with Tween-20-based emulsions.
as §1, with “Briefly,” for “Fatty acid methyl ester emulsions were prepared following the teachings of Kim et al (U.S. Pat. No. 5,698,592). Briefly,”, “Tween-20” for “Igepal CO 630”, “Tween-20,” for “Igepal CO 630,”

C. elegans [7] = test: Nematicidal activity of emulsions made with cyclodextrins (replacing isopropanol) against C. elegans; format: cell-based, Caenorhabditis elegans; details: igepal CO 630 / 2-Hydroxypropyl-β-Cyclodextrin emulsion
Source text: In an effort to increase the bioavailability of fatty acid methyl esters in emulsions, isopropanol was replaced with one of two cyclodextrins (Methyl-β-Cyclodextrin or 2-Hydroxypropyl-β-Cyclodextrin).

M. javanica [8] = test: Nematicidal activity of fatty acid methyl ester emulsions against root knot nematode J2 larvae (Example 6); format: cell-based, Meloidogyne javanica; details: 0.1% emulsion; 48 hours incubation, counted about 24 hours after transfer to plates
Protocol: as §1
(§4) Meloidogyne incognita and javanica were prepared from tomato roots. The roots were bleached and the debris was separated from the J2 larvae and eggs by filtration followed by sucrose density gradient centrifugation. Eggs were hatched over 4 days at 15° C. and the J2 larvae were collected by passage though a filter, followed by centrifugation.
(§5) Nematodes and emulsions were incubated with shaking at room temperature for 48 hours. The contents of each well were transferred to a small spot on individual NGM plates lacking bacteria. About 24 hours after the transfer to plates, worms on and off the inoculation spot were counted as not viable or viable, respectively. Worms were considered viable if they had crawled away from the inoculation spot, or if they were moving. Worms were considered non-viable if they remained at the inoculation spot.

M. incognita [9] = test: as above; format: cell-based, Meloidogyne incognita; details: 0.1% emulsion; 48 hours incubation, counted about 24 hours after transfer to plates
Protocol: as §1, §4, §5

tomato seedlings = test: Phytotoxicity evaluation on tomato seedlings; format: in vivo; details: 250 μl of 1% emulsion applied to stem-media interface of two-week seedlings
Protocol: Sterilized tomato seeds were germinated in magenta jars containing Gamborg's agar media. After two weeks of growth, seedlings were treated with 250 μl of 1% fatty acid methyl ester emulsion (nonanoic acid, ricinoleic acid, ricinelaidic acid, oleic acid, or a control emulsion lacking any fatty acid), applied directly to the stem-media interface. Tomato seedlings were scored at various times after application of emulsions.

B. malayi = test: Nematicidal activity of tween-based emulsions against microfilarial nematodes; format: cell-based, Brugia malayi
Protocol: To each well, tween-based fatty acid emulsions were added and rapidly mixed by swirling. Nematode microfilaria viability was scored by visual observation of motility at 24 and 48 hours following addition of emulsions. The fatty acid emulsions tested were methyl esters of ricinoleic acid, vernolic acid, ricinelaidic acid, oleic acid, and control emulsions lacking fatty acids. The results of this study are presented in Table 7 as the percentage of non-motile microfilaria 24 hours after inoculation and in Table 8 as the percentage of non-motile microfilaria 48 hours after inoculation

[10] = test system: everted hamster jejunal and ileal segments; details: Gaginella et al. (1975); cited from earlier work
[11] = test system: isolated intestinal epithelial cells; details: Gaginella et al. (1977); cited from earlier work

SMILES	Rescue of the delta-12 FAT RNAi feeding phenotype (C. elegans [1])	Percentage of Worm Death (C. elegans [2]; 0.003% emulsion, 1 hr)	Percentage of Worm Death (C. elegans [2]; 0.003% emulsion, 6 hr)	Percentage of Worm Death (C. elegans [2]; 0.003% emulsion, 24 hr)	Percentage of Worm Death (C. elegans [2]; 0.1% emulsion, 1 hr)	Percentage of Worm Death (C. elegans [2]; 0.1% emulsion, 6 hr)	Percentage of Worm Death (C. elegans [2]; 0.1% emulsion, 24 hr)	% Worm Death (24 hr) (C. elegans [3]; 0.01% solution) [%]	% Worm Death (24 hr) (C. elegans [3]; 0.1% solution) [%]	% Worm Death (24 hr) (P. trichosuri; 0.01% solution)	% Worm Death (24 hr) (P. trichosuri; 0.1% solution)	% Worm Death (24 hr) (H. glycines; 0.001% solution) [%]	% Worm Death (24 hr) (H. glycines; 0.01% solution) [%]	% Worm Death (24 hr) (H. glycines; 0.1% solution) [%]	% Worm Death (24 hr) (P. scribneri; 0.01% solution) [%]	% Worm Death (24 hr) (P. scribneri; 0.1% solution) [%]	further results
CCCCC/C=C\C/C=C\CCCCCCCC(=O)OC [Linoleic Acid (C18-methyl ester), linoleic acid methyl ester, reference compound]	partial rescue	0-5%	0-5%	0-5%	0-5%	0-5%	0-5%	<10	<10	˜25%	˜25%	<20	<20	<20	<20	<20	% Worm Death (24 hr) (C. elegans [3]; 0.001% solution): <10%; % Worm Death (24 hr) (M. incognita [4]; 0.01% solution): 20%; % Worm Death (24 hr) (M. incognita [4]; 0.1% solution): 20%; % Worm Death (48 hr) (M. javanica [5]; 0.01% solution): 0-5%; % Worm Death (48 hr) (M. javanica [5]; 0.1% solution): 20%; % Worm Death (24 hr) (C. elegans [6]; 0.01% solution): <10%; % Worm Death (24 hr) (C. elegans [6]; 0.1% solution): <10%; % Worm Death (24 hr) (C. elegans [7]; 0.01% solution): <10%; % Worm Death (24 hr) (C. elegans [7]; 0.1% solution): <10%
CCCCCCCC/C=C\CCCCCCCC(=O)OC [Oleic Acid (C18-methyl ester), oleic acid methyl ester, reference compound]	does not rescue	0-5%	0-5%	0-5%	0-5%	0-5%	0-5%	<10	<10	˜10%	˜10%	<10	<10	<10	<20	<20	M. javanica (% not viable) (M. javanica [8]): 20%; M. incognita (% not viable) (M. incognita [9]): 25%; Visible effects on tomato seedlings (tomato seedlings): none of the tomatoes treated with the other fatty acid methyl ester emulsions showed visible effects; percentage of non-motile microfilaria (B. malayi; 24 hrs post-inoculation, 0.0008%): 0%; percentage of non-motile microfilaria (B. malayi; 24 hrs post-inoculation, 0.0016%): 0%; percentage of non-motile microfilaria (B. malayi; 24 hrs post-inoculation, 0.003%): 0%; percentage of non-motile microfilaria (B. malayi; 24 hrs post-inoculation, 0.005%): 0%; percentage of non-motile microfilaria (B. malayi; 24 hrs post-inoculation, 0.0067%): 0%; percentage of non-motile microfilaria (B. malayi; 24 hrs post-inoculation, 0.008%): 0%; percentage of non-motile microfilaria (B. malayi; 48 hrs post-inoculation, 0.0008%): 0%; percentage of non-motile microfilaria (B. malayi; 48 hrs post-inoculation, 0.0016%): 0%; percentage of non-motile microfilaria (B. malayi; 48 hrs post-inoculation, 0.003%): 0%; percentage of non-motile microfilaria (B. malayi; 48 hrs post-inoculation, 0.005%): 0%; percentage of non-motile microfilaria (B. malayi; 48 hrs post-inoculation, 0.0067%): 0%; percentage of non-motile microfilaria (B. malayi; 48 hrs post-inoculation, 0.008%): 0%
CCCCCC[C@@H](O)C/C=C\CCCCCCCC(=O)O [Ricinoleic acid, reference compound]	–	–	–	–	–	–	–	–	–	–	–	–	–	–	–	–	Effect on water (and electrolyte) absorption [10]: inhibitory effect on water and electrolyte absorption; Cytotoxicity [11]: cytotoxic
